According to patent publication US11566002B2, “Substituted tetrahydrocyclopenta[C]pyrroles, substituted dihydropyrrolizines, analogues thereof, and methods using same” (priority 2018, dated 2023):

Test system: HBV rcDNA
Experiment: HepDE19 assay with bDNA quantitation of HBV rcDNA
Format: cell-based, hepatitis B virus
Conditions: HepDE19 cells, Tet-free medium, 7 day-incubation, rcDNA measured by Quantigene 2.0 bDNA assay, top concentration 25 μM; read-out: DE-19 bDNA EC50
Protocol: HepDE19 Assay with bDNA Quantitation of HBV rcDNA:
HepDE19 cell culture system is a HepG2 (human hepatocarcinoma) derived cell line that supports HBV DNA replication and cccDNA formation in a tetracycline (Tet)-regulated manner and produces HBV rcDNA and a detectable reporter molecule dependent on the production and maintenance of cccDNA (Guo, et al., 2007, J. Virol. 81:12472-12484).
HepDE19 (50,000 cells/well) were plated in 96-well collagen-coated tissue-culture treated microtiter plates in DMEM/F12 medium supplemented with 10% fetal bovine serum, 1% penicillin-streptomycin and 1 μg/mL tetracycline and incubated in a humidified incubator at 37° C. and 5% CO2 overnight. Next day, the cells were switched to fresh medium without tetracycline and incubated for 4 hours at 37° C. and 5% CO2. The cells were treated with fresh Tet-free medium with compounds at concentrations starting at 25 μM and a serial, ½ log, 8-point, titration series in duplicate. The final DMSO concentration in the assay was 0.5%. The plates were incubated for 7 days in a humidified incubator at 37° C. and 5% CO2. Following a 7 day-incubation, the level of rcDNA present in the inhibitor-treated wells was measured using a Quantigene 2.0 bDNA assay kit (Affymetrix, Santa Clara, Calif.) with HBV specific custom probe set and manufacturers instructions. Concurrently, the effect of compounds on cell viability was assessed using replicate plates, plated at a density of 5,000 cells/well and incubated for 4 days, to determine the ATP content as a measure of cell viability using the cell-titer glo reagent (CTG; Promega Corporation, Madison, Wis.) as per manufacturer's instructions. The plates were read using a Victor luminescence plate reader (PerkinElmer Model 1420 Multilabel counter) and the relative luminescence units (RLU) data generated from each well was calculated as % inhibition of the untreated control wells and analyzed using XL-Fit module in Microsoft Excel to determine EC50 and EC90 (bDNA) and CC50 (CTG) values using a 4-parameter curve fitting algorithm.
Representative compounds of the invention were tested for their abilities to inhibit formation of relaxed circular DNA (rcDNA) in a HepDE19 assay, as described elsewhere herein.

Row | Structure (SMILES) | EC50
1 | Cn1cc2c(c1C(=O)Nc1ccc(F)c(Cl)c1)CCC2NC(=O)OCc1n[nH]nc1C1CC1 (single isomer, unassigned) [Compound 146, (5-Cyclopropyl-2H-1,2,3-triazol-4-yl)methyl (1-((3-chloro-4-fluorophenyl)carbamoyl)-2-methyl-2,4,5,6-tetrahydrocyclopenta[c]pyrrol-4-yl)carbamate] | 9.3 µM
2 | Cn1cc2c(c1C(=O)Nc1ccc(F)c(Cl)c1)CCC2NC(=O)OCC#CC1CC1 (single isomer, unassigned) [Compound 115, 3-Cyclopropylprop-2-yn-1-yl (1-((3-chloro-4-fluorophenyl)carbamoyl)-2-methyl-2,4,5,6-tetrahydrocyclopenta[c]pyrrol-4-yl)carbamate] | 5.4 µM
3 | Cc1c2c(c(C(=O)Nc3ccc(F)c(Cl)c3)n1C)CCCC2NC(=O)OCc1ncn(C)n1 (single isomer, unassigned) [Compound 93, (1-Methyl-1H-1,2,4-triazol-3-yl)methyl (1-((3-chloro-4-fluorophenyl)carbamoyl)-2,3-dimethyl-4,5,6,7-tetrahydro-2H-isoindol-4-yl)carbamate] | 0.95 µM
4 | Cn1cc2c(c1C(=O)Nc1ccc(F)c(Cl)c1)CCC2NC(=O)OCc1ccccn1 (centres unmarked) [Compound 6] | 0.14 µM
5 | CCn1cc2c(c1C(=O)Nc1ccc(F)c(Cl)c1)CCC2NS(=O)(=O)C1CC1 (single isomer, unassigned) [Compound 16, N-(3-Chloro-4-fluorophenyl)-4-(cyclopropanesulfonamido)-2-ethyl-2,4,5,6-tetrahydrocyclopenta[c]pyrrole-1-carboxamide] | 0.13 µM
6 | Cn1cc2c(c1C(=O)Nc1ccc(F)c(Cl)c1)CCC2NC(=O)C1CC1 (single isomer, unassigned) [Compound 23, N-(3-Chloro-4-fluorophenyl)-4-(cyclopropanecarboxamido)-2-methyl-2,4,5,6-tetrahydrocyclopenta [c]pyrrole-1-carboxamide] | 0.12 µM
7 | Cn1c(C(=O)Nc2ccc(F)c(Cl)c2)c2c(c1C(F)(F)F)C(NC(=O)OCc1nc[nH]n1)CC2 (single isomer, unassigned) [Compound 127, (1H-1,2,4-Triazol-3-yl)methyl (1-((3-chloro-4-fluorophenyl)carbamoyl)-2-methyl-3-(trifluoromethyl)-2,4,5,6-tetrahydrocyclopenta[c]pyrrol-4-yl)carbamate] | 0.44 µM
8 | Cn1cc2c(c1C(=O)Nc1ccc(F)c(Cl)c1)CCC2NS(=O)(=O)C1CC1 (single isomer, unassigned) [Compound 14, N-(3-Chloro-4-fluorophenyl)-4-(cyclopropanesulfonamido)-2-methyl-2,4,5,6-tetrahydrocyclopenta [c]pyrrole-1-carboxamide] | 0.07 µM
9 | Cn1cc(COC(=O)NC2CCc3c2cn(C)c3C(=O)Nc2ccc(F)c(Cl)c2)nn1 (single isomer, unassigned) [Compound 116, (1-Methyl-1H-1,2,3-triazol-4-yl)methyl (1-((3-chloro-4-fluorophenyl)carbamoyl)-2-methyl-2,4,5,6-tetrahydrocyclopenta[c]pyrrol-4-yl)carbamate] | 0.05 µM
10 | Cn1cc2c(c1C(=O)Nc1ccc(F)c(Cl)c1)CCC2NC(=O)OCc1c[nH]nn1 (single isomer, unassigned) [Compound 59, (1H-1,2,3-Triazol-4-yl)methyl (1-((3-chloro-4-fluorophenyl)carbamoyl)-2-methyl-2,4,5,6-tetrahydrocyclopenta[c]pyrrol-4-yl)carbamate] | 4.2 µM
11 | Cn1cnc(COC(=O)NC2CCc3c2c(C2CC2)n(C)c3C(=O)Nc2ccc(F)c(Cl)c2)n1 (single isomer, unassigned) [Compound 90, (1-Methyl-1H-1,2,4-triazol-3-yl)methyl (1-((3-chloro-4-fluorophenyl)carbamoyl)-3-cyclopropyl-2-methyl-2,4,5,6-tetrahydrocyclopenta[c]pyrrol-4-yl)carbamate] | 0.42 µM
12 | Cn1c(Cl)c2c(c1C(=O)Nc1ccc(F)c(Cl)c1)CCC2NC(=O)OCc1cn[nH]n1 (single isomer, unassigned) [Compound 107, (2H-1,2,3-Triazol-4-yl)methyl (3-chloro-1-((3-chloro-4-fluorophenyl)carbamoyl)-2-methyl-2,4,5,6-tetrahydrocyclopenta[c]pyrrol-4-yl)carbamate] | 0.01 µM
13 | Cn1cc2c(c1C(=O)Nc1ccc(F)c(Cl)c1)CCCC2NS(=O)(=O)C1CC1 (single isomer, unassigned) [Compound 30, N-(3-Chloro-4-fluorophenyl)-4-(cyclopropanesulfonamido)-2-methyl-4,5,6,7-tetrahydro-2H-isoindole-1-carboxamide] | 2.1 µM
14 | Cn1c(Cl)c2c(c1C(=O)Nc1ccc(F)c(Cl)c1)CCC2NC(=O)OCc1nc[nH]n1 (single isomer, unassigned) [Compound 105, (1H-1,2,4-Triazol-3-yl)methyl (3-chloro-1-((3-chloro-4-fluorophenyl)carbamoyl)-2-methyl-2,4,5,6-tetrahydrocyclopenta[c]pyrrol-4-yl)carbamate] | 0.01 µM

Same assay, conditions: Hepatitis B virus, HepDE19, 168 h, HepDE19 cells, Tet-free medium, 7 day-incubation, rcDNA measured by Quantigene 2.0 bDNA assay, top concentration 25 μM; read-out: DE-19 bDNA EC50

Row | Structure (SMILES) | EC50
15 | Cn1cc2c(c1C(=O)Nc1ccc(F)c(Cl)c1)CCCC2NS(=O)(=O)C1CC1 (single isomer, unassigned) [Compound 78, N-(3-Chloro-4-fluorophenyl)-4-(cyclopropanesulfonamido)-2-methyl-4,5,6,7-tetrahydro-2H-isoindole-1-carboxamide] | 3.96 µM
16 | Cn1cnc(COC(=O)NC2CCc3c2cn(C)c3C(=O)Nc2ccc(F)c(C#N)c2)n1 (single isomer, unassigned) [Compound 67, (1-methyl-1H-1,2,4-triazol-3-yl)methyl (1-((3-cyano-4-fluorophenyl)carbamoyl)-2-methyl-2,4,5,6-tetrahydrocyclopenta[c]pyrrol-4-yl)carbamate] | 0.06 µM
17 | Cn1cnc(COC(=O)NC2CCc3c2cn(C)c3C(=O)Nc2ccc(F)c(C(F)(F)F)c2)n1 (single isomer, unassigned) [Compound 69, (1-Methyl-1H-1,2,4-triazol-3-yl)methyl (1-((4-fluoro-3-(trifluoromethyl)phenyl)carbamoyl)-2-methyl-2,4,5,6-tetrahydrocyclopenta[c]pyrrol-4-yl)carbamate] | 0.28 µM
18 | Cn1cnc(COC(=O)NC2CCc3c2cn(C)c3C(=O)Nc2ccnc(Cl)c2)n1 (single isomer, unassigned) [Compound 68, (1-methyl-1H-1,2,4-triazol-3-yl)methyl (1-((2-chloropyridin-4-yl)carbamoyl)-2-methyl-2,4,5,6-tetrahydrocyclopenta[c]pyrrol-4-yl)carbamate] | 0.66 µM

Same assay, conditions: Hepatitis B virus, HepDE19, 168 h, read-out: DE-19 bDNA EC50 (μM), HepDE19 cells, Tet-free medium, 7 day-incubation, rcDNA measured by Quantigene 2.0 bDNA assay, top concentration 25 μM

Row | Structure (SMILES) | EC50
19 | COC(=O)NC1CCc2c1cn(C)c2C(=O)Nc1ccc(F)c(Cl)c1 (racemic) [Compound 1, methyl 1-(3-chloro-4-fluorophenylcarbamoyl)-2-methyl-2,4,5,6-tetrahydrocyclopenta[c]pyrrol-4-ylcarbamate] | 0.09 µM

Same assay, conditions: read-out: DE-19 bDNA EC50; HepDE19 cells, Tet-free medium, 7 day-incubation, rcDNA measured by Quantigene 2.0 bDNA assay, top concentration 25 μM

Row | Structure (SMILES) | EC50
20 | Cn1ccc(COC(=O)NC2CCc3c2cn(C)c3C(=O)Nc2ccc(F)c(Cl)c2)n1 (single isomer, unassigned) [Compound 21, (1-Methyl-1H-pyrazol-3-yl)methyl(1-((3-chloro-4-fluorophenyl)carbamoyl)-2-methyl-2,4,5,6-tetrahydrocyclopenta[c]pyrrol-4-yl)carbamate] | 0.04 µM
21 | CCc1n[nH]nc1COC(=O)NC1CCc2c1cn(C)c2C(=O)Nc1ccc(F)c(Cl)c1 (single isomer, unassigned) [Compound 140, (5-Ethyl-2H-1,2,3-triazol-4-yl)methyl(1-((3-chloro-4-fluorophenyl)carbamoyl)-2-methyl-2,4,5,6-tetrahydrocyclopenta[c]pyrrol-4-yl)carbamate] | 12 µM
22 | COC(=O)NC1CCCCc2c1cn(C)c2C(=O)Nc1ccc(F)c(Cl)c1 (single isomer, unassigned) [Compound 79, Methyl (1-((3-chloro-4-fluorophenyl)carbamoyl)-2-methyl-2,4,5,6,7,8-hexahydrocyclohepta[c]pyrrol-4-yl)carbamate] | 0.73 µM
23 | CCc1n[nH]nc1COC(=O)NC1CCc2c1cn(C)c2C(=O)Nc1ccc(F)c(Cl)c1 (single isomer, unassigned) [Compound 141, (5-Ethyl-2H-1,2,3-triazol-4-yl)methyl(1-((3-chloro-4-fluorophenyl)carbamoyl)-2-methyl-2,4,5,6-tetrahydrocyclopenta[c]pyrrol-4-yl)carbamate] | 1.2 µM
